What is called melting point is the temperature, or range, at which the solid turns liquid. In turn, `Oc1c2c3c(ccnc3c3ccccc13)CCC2` registered a melting point of 260 °C. For the molecule `CC(C)(O)CCOc1c(-c2ccc(S(N)(=O)=O)cc2)cnn(-c2ccc(F)c(Cl)c2)c1=O`, the melting point lay within 59 to 62 °C. Molecule `C[C@H](O)CCC[C@H](O)CCCCCc1cc(O)cc(O)c1C(=O)O` gave a melting point of 116 to 118 °C. In the case of `CC1(C)SC(C)(C)C1C(=O)O` it was 149 to 151 °C; in that of `CC(C)NC(=O)c1nc(-c2ccccc2)c(-c2ccc(=O)[nH]n2)s1`, greater than 250 °C; in that of `CCS(=O)(=O)Oc1cc2c(C)c(CCN3CCN(c4ccccc4OC)CC3)c(=O)oc2cc1OC`, 148 to 150 °C. In the case of `COc1ccc2[nH]cc(C=C[N+](=O)[O-])c2c1` it was 151 to 152 °C.

In turn, `OC(CCN1CCC(c2ccc(Cl)cc2)CC1)c1ccc(Cl)cc1` (stereo not given) yielded a melting point of 152 to 154 °C.

Consider `CC(C)(C)OC(=O)Nc1ccc(C(=O)N2CCC(c3[nH]nc4c3C(=O)c3c(NC(=O)NN5CCOCC5)cccc3-4)CC2)cc1`, for which the melting point was in the range of 212 to 214 °C. In the case of `O=C(NC1CC1)c1cccc(-c2ccc3c(c2)N(c2ccc(Cl)cc2Cl)CC3)c1` it was 215 to 218 °C; in that of `COC(=O)c1nc(Br)c(F)c(N)c1Cl`, 119 to 120 °C.

In the case of `c1cc(N=Nc2ccncc2)ccn1`, the melting point was in the range of 87 to 89 °C. The molecule `COc1cc(C)c(C(O)c2c(O)ccc(Cl)c2C)c(OC)c1OC` (stereo not given) displayed a melting point of 140 to 142 °C. For the molecule `CC(C)(C)OC(=O)N1CCn2c(Cl)c(Br)c(C(N)=O)c2C1`, the melting point was 214 to 216 °C.

Molecule `CCCCCCCCCCCCCCCCCCNC(=O)OC[C@@H]1OCCC[C@H]1O` (relative stereo) showed a melting point of 55 to 56 °C.

For `COc1ccc(-c2[nH]nc3c2C(=O)c2c(NC(=O)NNC(=O)c4ccc(O)c(O)c4)cccc2-3)cc1`, the melting point was greater than 300 °C. For `COc1ccc(C(C#Cc2cnc(N)nc2)Cc2nc(C)co2)cc1OC1CCCC1` (racemic), the melting point is 103 to 105 °C. In the case of `CC(=O)c1ccc(NS(C)(=O)=O)c(C(=O)Nc2ccc(F)cc2F)c1` it was 153 to 155 °C. For the molecule `Cn1nc(C(F)(F)F)cc1Oc1cc(Cl)c(Cl)cc1[N+](=O)[O-]`, the melting point was in the range of 99 to 100 °C. In the case of `O=C(NCCC1OCCO1)c1cc(Br)c(Br)[nH]1` it was 155 to 157 °C; in that of `CCCC(=O)c1cnc2c(OC)cccc2c1Nc1c(C)cc2c(c1C)OCO2`, 150 to 152 °C. Molecule `CC(C)c1ccccc1NC#N` showed a melting point of 75 to 77 °C. For the molecule `CCOC(=O)c1cn(-c2nc(N)c(Cl)cc2F)c2c(Cl)c(F)c(F)cc2c1=O`, the melting point was 186 to 189 °C. In the case of `COC(=O)COc1cccc2c(CNS(=O)(=O)CCCCCc3ccccc3)coc12` it was 84.5 to 85.5 °C. In the case of `CC1CCc2ncc(C(=O)NN)c(=O)n21` (stereo not given) it was 136 to 137 °C.

The molecule `CCCCCCCCCc1ccc(C(=O)CCCCC(=O)O)cc1` registered a melting point of 29 to 31 °C.

`COC(=O)C[C@@H]1C[C@@H](COc2ccc(-c3ccc(C#N)cc3)cc2N)N(CCCc2ccccc2)C1=O` yielded a melting point of 111 to 112 °C. Regarding `O=C1c2cccc3c(Cl)c(Cl)cc(c23)C(=O)N1O`, the melting point lay within 267 to 269 °C. The molecule `CN(C)c1nn2nnnc2c2c1CCCC2` gave a melting point of 239 to 240 °C.

As to `COC(=O)c1cc(NC2CCOCC2)nc(Cl)n1`, the melting point was in the range of 190 to 192 °C. In the case of `NS(=O)(=O)c1ccc(NC(=O)CNc2ccccc2)cc1Cl` it was 192 to 194 °C. Molecule `COCCNc1ccc2ncnc(Nc3ccc(F)cc3F)c2c1` came in with a melting point of 175 to 176 °C.

In turn, `CCCCn1c(COCC)nc2c(N)nc3ccc(-c4cccnc4)cc3c21` registered a melting point of 220 to 222 °C.

Molecule `CC1(C)C2CC[C@]1(C)C(=O)C(C(=O)Nc1ccc(Cl)c(C(F)(F)F)c1)C2=O` (stereo not given in full) came in with a melting point of 118 to 120 °C.

`O=C(O)CN1C(=O)C2(COc3cc4c(cc32)CCO4)c2c(Cl)cccc21` (stereo not given) displayed a melting point of 228 to 229 °C.

Values taken from a melting point compilation (Tetko et al.; mined from patent text by program, amines drawn as free bases though some values may be those of a salt).
